Data published in patent publication US20250057808A1, “COMPOSITION COMPRISING BETA LACTAM FOR TREATING ALCOHOL DEPENDENCE AND ALCOHOL ASSOCIATED DISEASES OR CONDITIONS” (Temple University of the Commonwealth System of Higher …, priority 2023, published 2025).
Entries after “also recorded” stand apart in the source; their conditions may differ.

Assays:
PPAR-α = assay: Western blot PPAR-α expression in NAc-core, NAc-shell and liver; assay type: in vivo, P rats; conditions: MC-100093 50 mg/kg or ceftriaxone 200 mg/kg i.p. 5 days; among all groups
Method: (§1) We used micro-punch procedure to dissect the subregions of the NAc such as NAc-core and NAc-shell as well as the subregions of prefrontal cortex such as infralimbic (IL) and prelimbic (PL) from the brain on day 6 after the last injection day. P rats were removed from the cage and rapidly euthanized by CO2 inhalation followed by rapid decapitation with a guillotine. Brains were isolated and immediately frozen on dry ice and stored at −80° C. The stereotaxic coordinates provided by Paxinos and colleague's rat brain stereotactic atlas was used to isolate NAc-core and NAc-shell using a cryostat apparatus (−20° C.), which then kept at −80° C. for later western blot analyses.
Western Blot assay was performed to measure changes in the expression of GLT-1, xCT, mGluR1, mGluR5, PPAR-α, PPARγ, GAPDH and β-tubulin in the NAc-core and NAc-shell as described in previous publications. A lysis buffer containing protease and phosphatase inhibitors was used to generate a homogenate of liver, Nac-core, and Nac-shell samples. The amount of protein was quantified using a detergent compatible protein assay (Bio-Rad, Hercules, CA, USA) for each sample. Samples were mixed with laemmli dye and loaded with equal amounts on polyacrylamide gels (10%), which separated the proteins using electrophoresis. After that, polyvinylidene difluoride (PVDF) membranes were used to transfer the proteins electrophoretically from the gels. Membranes were incubated in 5% free-fat milk in Tris-buffered saline with Tween-20 (TBST) for 30-60 minutes at room temperature. Membranes were then incubated with appropriate primary antibodies overnight at 4° C.: rabbit anti-GLT-1 (1:5000, Abcam, ab41621), rabbit anti-xCT (1:2000, Abcam, ab175186), rabbit anti-mGluR1 (1:1000, Abcam, ab82211), rabbit anti-mGluR5 (1:1000, Abcam, ab76316), rabbit anti-PPAR-α (1:1000, Abcam, ab24509), and rabbit anti-PPARγ (1:1000, Abcam, ab209350). Mouse anti-β-tubulin (1:1000; BioLegend) was used as a loading control antibody for the brain samples and rabbit anti-GAPDH (1:5000; cell signaling) was used as a loading control antibody for the liver samples. Membranes were washed five times on the next day with TBST followed by incubation with appropriate secondary antibody (1:5000) for 90 minutes at room temperature. Chemiluminescent reagents (Super Signal West Pico, Pierce Inc.) were used to detect the proteins using a GeneSys imaging system to develop the digitized blot images. Water-control group data were represented as 100% and all other values were expressed relative to control group to detect changes in the expression of the protein of interest in the brain and liver samples.
All statistical analyses were conducted with Graphpad Prism software, with p-values of 0.05 or less being statistically significant. […]

fat content in the liver = assay: Liver Oil Red O staining (fat content); assay type: in vivo, P rats; conditions: MC-100093 50 mg/kg or ceftriaxone 200 mg/kg i.p. 5 days, control, ethanol, ethanol-CEF groups
Method: To measure the fat content in the liver sections, we used Oil Red O (Sigma, CAS Number 1320-06-5) staining on 10 μm thick formalin-fixed liver sections and placed in slides for further staining. The slides were stained with freshly prepared Oil Red O working solution 15 minutes then rinsed with 60% isopropanol. Slides were then rinsed with distilled water and mounted in aqueous mounting media and prepared for imaging. The degree of Oil Red O staining was determined at 20× magnification using a color video camera attached to an Olympus VS120 slide scanning microscope. Olympus OlyVIA software was used to analyze the images. The lipid droplets were quantified using Image J pro (NIH). Data are presented as the mean+SEM of the Oil Red O staining for each group.
All statistical analyses were conducted with Graphpad Prism software, with p-values of 0.05 or less being statistically significant. We performed a two-way (mixed model) ANOVA followed by Bonferroni multiple comparison post-hoc test to analyze 24 h ethanol consumption, 24 h water consumption, and daily body weight. For the Western blot and oil red O staining analysis, we performed one-way ANOVA with Newman-Keuls as a post hoc multiple comparison test to measure differences between groups as a percentage (relative to control values).

GLT-1 = GLT-1 expression in mPFC subregions IL and PL (further studies, 100 mg/kg); assay type: in vivo, Male P rats; conditions: MC-100093 100 mg/kg i.p. 5 days
Method: as §1
Western Blot assay was performed to measure changes in the expression of GLT-1, xCT, mGluR1, mGluR5, PPAR-α, PPARγ, GAPDH and β-tubulin in the NAc-core and NAc-shell as described in previous publications. A lysis buffer containing protease and phosphatase inhibitors was used to generate a homogenate of liver, Nac-core, and Nac-shell samples. The amount of protein was quantified using a detergent compatible protein assay (Bio-Rad, Hercules, CA, USA) for each sample. Samples were mixed with laemmli dye and loaded with equal amounts on polyacrylamide gels (10%), which separated the proteins using electrophoresis. […]

[1] = tested on: gram-positive and gram-negative bacteria; conditions: cited from earlier work
plasma protein = conditions: cited from earlier work

In the case of `C[C@@H](O)[C@H]1C(=O)N[C@@H]1[C@@H](C)C(=O)N1CCN(C)CC1` [MC-100093], the “Protein expression of PPAR-α in the NAc-core” value (PPAR-α) is reported as “non-significant differences; also recorded: did not detect significant changes”, the “Protein expression of PPAR-α in the NAc-shell” value (PPAR-α) is reported as “non-significant differences; also recorded: did not detect significant changes” and the “Liver fat content (Oil Red O stained fat droplets)” value (fat content in the liver) is reported as “no significant difference in fat content between control, ethanol-MC, and ethanol-CEF groups; also recorded: significantly higher fat droplet content in ethanol group (p<0.05) compared to control, ethanol-MC or ethanol-CEF groups; also recorded: alleviated the liver steatosis”. The “GLT-1 expression in the prelimbic frontal cortex (PL)” value (GLT-1; vs control/saline and ethanol/saline) was “increased GLT-1 expression in both subregions of mPFC; also recorded: non-statistically significant increase of GLT-1 expression; also recorded: upregulated the expression of GLT-1”, the “GLT-1 expression in the infralimbic prefrontal cortex (IL)” value (GLT-1; vs ethanol/saline) was “increased GLT-1 expression in both subregions of mPFC; also recorded: significantly higher levels of GLT-1 expression; also recorded: increased the expression of GLT-1; also recorded: upregulated GLT-1 expression” and the “Antimicrobial / antibiotic activity” value [1] was “without any antibiotic action; also recorded: no antibiotic activity; also recorded: no antibiotic actions; also recorded: lacking the antibacterial properties; also recorded: lacks antimicrobial activity; also recorded: does not have any antibiotic action”. For the same molecule, the “Binding to plasma protein” value (plasma protein) was “low binding to plasma protein”.
